# According to patent publication US7727988B2, “Azabicyclo[3.1.0]hex-3-yl}alkyl)pyrimidinedione” (Glaxo Group Limited, priority 2006, dated 2010):
# Molecular target: T1, dopamine D3 receptor (Homo sapiens, UniProt P35462)
# T1 construct: host or cells: Chinese Hamster Ovary (CHO) cells, membranes
# Experiment: GTPS scintillation proximity assay (GTPS-SPA), CHO_D3 membranes, antagonist format
# Format: biochemical
# Conditions: not given
# Description: (§1) Functional potency of compounds of this invention can be measured by the following GTPS scintillation proximity assay (GTPS-SPA). Cells used in the study are Chinese Hamster Ovary (CHO) Cells. • Cell Line • CHO_D2 • CHO_D3 • Dopamine CHO D3 (Biocat no 1060) transduced with bacmam G0 G-protein (Biocat no 97886)
# (§2) All steps are performed at 4° C. Cell membranes are prepared as follows. Cell pellets are resuspended in 10 volumes of 50 mM HEPES, 1 mM EDTA pH 7.4, using KOH. Cells are homogenised within a glass waring blender for 2 bursts of 15 secs in 200 mls of buffer (50 mM HEPES, 1 mM leupeptin, 25 μg/ml bacitracin, 1 mM EDTA, 1 mM PMSF, 2 μM Pepstatin A). (the latter 2 reagents added as fresh ×100 and ×500 stocks respectively in ethanol). The blender is plunged into ice for 5 mins after the first burst and 10-40 mins after the final burst to allow foam to dissipate. The material is then spun at 500 g for 20 mins and the supernatant spun for 36 mins at 48.000 g. The pellet is resuspended in the same buffer as above but without PMSF and Pepstatin A. The material is then forced through a 0.6 mm needle, made up to the required volume, (usually ×4 the volume of the original cell pellet), aliquoted and stored frozen at −80° C.
# (§3) The final top concentration of test drug is 3 μM in the assay and 11 points serial dilution curves 1:4 in 100% DMSO are carried out using a Biomek FX. The test drug at 1% (0.5 ul) total assay volume (TAV) is added to a solid, white Greiner polypropylene 384-well assay plate. 50% TAV (25 μl) of precoupled (for 60 mins at RT) membranes, 5 μg/well, and Wheatgerm Agglutinin Polystyrene Scintillation Proximity Assay beads (RPNQ0260, Amersham), 0.25 mg/well, in 20 mM HEPES (pH 7.4, 100 mM NaCl, 10 mM MgCl2), 60 μg/mL saponin and 30 uM GDP is added. The third addition is a 20% TAV (10 ul) addition of either buffer, (agonist format) or EC80 final assay concentration of agonist, Quinelorane, prepared in assay buffer (antagonist format). The assay is started by the addition of 29% TAV (15 ul) of GTP[35S] 0.38 nM final (37 MBq/mL, 1160 Ci/mmol, Amersham). After all additions assay plates are spun down for 1 min at 1,000 rpm. The final assay cocktail ([…]) is incubated at room temperature to equilibrate for 3-6 hours before reading on a ViewLux™ (613/55 filter) luminescence imager 5 min/plate.
# (§4) The effect of the test drug over the basal generates fpKi values of test drug are calculated from the IC50 generated by “antagonist format” experiment, using Cheng & Prusoff equation: fKi=IC50/1+([A]/EC50) where: [A] is the concentration of the agonist Quinelorane in the assay and EC50 is the Quinelorane EC50 value obtained in the same experiment. fpKi is defined as −logfKi. • pKi results are only estimated to be accurate to about 0.3-0.5.
# T1 sequence (P35462 whole entry, species assumed): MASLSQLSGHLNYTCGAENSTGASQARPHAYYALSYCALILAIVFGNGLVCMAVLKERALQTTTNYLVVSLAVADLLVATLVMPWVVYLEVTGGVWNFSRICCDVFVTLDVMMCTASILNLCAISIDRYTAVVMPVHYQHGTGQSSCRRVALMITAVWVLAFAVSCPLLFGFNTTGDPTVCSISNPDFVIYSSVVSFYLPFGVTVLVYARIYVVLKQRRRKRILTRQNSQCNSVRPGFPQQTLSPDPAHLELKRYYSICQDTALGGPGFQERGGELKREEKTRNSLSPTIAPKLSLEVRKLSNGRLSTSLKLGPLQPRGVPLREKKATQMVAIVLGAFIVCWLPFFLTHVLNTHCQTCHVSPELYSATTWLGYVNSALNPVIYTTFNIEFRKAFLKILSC
row,SMILES,Selectivity for D3 over D2 receptors
1,"Cl.O=c1[nH]c(=O)n(CCCN2C[C@@H]3C[C@]3(c3ccc(C(F)(F)F)cc3)C2)cc1-c1cccs1 [Example E8, 5-(2-thienyl)-1-(3-{(1S,5R)-1-[4-(trifluoromethyl)phenyl]-3-azabicyclo[3.1.0]hex-3-yl}propyl)-2,4(1H,3H)-pyrimidinedione hydrochloride]",100 fold
2,"Cl.Cl.O=c1[nH]c(=O)n(CCCN2C[C@@H]3C[C@]3(c3ccc(C(F)(F)F)cc3)C2)cc1-c1cccnc1 [Example E27, 5-(3-pyridinyl)-1-(3-{(1S,5R)-1-[4-(trifluoromethyl)phenyl]-3-azabicyclo[3.1.0]hex-3-yl}propyl)-2,4(1H,3H)-pyrimidinedione dihydrochloride]",251 fold
3,"Cl.Cl.O=c1[nH]c(=O)n(CCCN2C[C@@H]3C[C@]3(c3ccc(C(F)(F)F)cc3)C2)cc1-c1cc(Cl)cnc1F [Example E43, 5-(5-chloro-2-fluoro-3-pyridinyl)-1-(3-{(1S,5R)-1-[4-(trifluoromethyl)phenyl]-3-azabicyclo[3.1.0]hex-3-yl}propyl)-2,4(1H,3H)-pyrimidinedione dihydrochloride]",100 fold

# Molecular target: T2, dopamine D2 receptor (Homo sapiens, UniProt P14416)
# T2 construct: expressed in transfected cells; host or cells: Chinese Hamster Ovary (CHO) cells, membranes
# T2 sequence (P14416 whole entry): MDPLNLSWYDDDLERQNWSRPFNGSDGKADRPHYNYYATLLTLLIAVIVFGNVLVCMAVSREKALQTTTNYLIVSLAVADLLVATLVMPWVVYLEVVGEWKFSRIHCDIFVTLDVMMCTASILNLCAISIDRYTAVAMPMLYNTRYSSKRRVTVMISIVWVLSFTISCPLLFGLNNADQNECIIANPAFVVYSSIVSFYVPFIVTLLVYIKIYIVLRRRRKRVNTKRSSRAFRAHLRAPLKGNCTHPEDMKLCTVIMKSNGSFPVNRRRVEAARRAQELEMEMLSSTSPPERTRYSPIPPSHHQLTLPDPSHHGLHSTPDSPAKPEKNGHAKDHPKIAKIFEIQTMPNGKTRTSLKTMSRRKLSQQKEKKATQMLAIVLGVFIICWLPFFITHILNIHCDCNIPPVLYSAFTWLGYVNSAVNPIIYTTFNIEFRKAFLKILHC
# Experiment: GTPS scintillation proximity assay (GTPS-SPA), CHO_D2 membranes
# Format: biochemical
# Conditions: up to the highest concentration tested in the assay (3 μM)
# Description: as §1, §2, §3, §4
row,SMILES,activity in the D2 GTPS-SPA assay
1,"Cc1ccc(-c2cn(CCCN3C[C@@H]4C[C@]4(c4ccc(C(F)(F)F)cc4)C3)c(=O)[nH]c2=O)cn1.Cl.Cl [Example E40, 5-(6-methyl-3-pyridinyl)-1-(3-{(1S,5R)-1-[4-(trifluoromethyl)phenyl]-3-azabicyclo[3.1.0]hex-3-yl}propyl)-2,4(1H,3H)-pyrimidinedione dihydrochloride]",no activity
2,"Cl.Cl.O=c1[nH]c(=O)n(CCCN2C[C@@H]3C[C@]3(c3ccc(C(F)(F)F)cc3)C2)cc1-c1cccnc1F [Example E25, 5-(2-fluoro-3-pyridinyl)-1-(3-{(1S,5R)-1-[4-(trifluoromethyl)phenyl]-3-azabicyclo[3.1.0]hex-3-yl}propyl)-2,4(1H,3H)-pyrimidinedione dihydrochloride]",no activity
3,"Cl.Cl.O=c1[nH]c(=O)n(CCCN2C[C@@H]3C[C@]3(c3ccc(C(F)(F)F)cc3)C2)cc1-c1ccc(F)nc1 [Example E20, 5-(6-fluoro-3-pyridinyl)-1-(3-{(1S,5R)-1-[4-(trifluoromethyl)phenyl]-3-azabicyclo[3.1.0]hex-3-yl}propyl)-2,4(1H,3H)-pyrimidinedione dihydrochloride]",no activity
4,"O=c1[nH]c(=O)n(CCCN2CC3CC3(c3ccc(Cl)cc3)C2)cc1-c1cccnc1F [Example E50, 1-{3-[(1S,5R/1R,5S)-1-(4-chlorophenyl)-3-azabicyclo[3.1.0]hex-3-yl]propyl}-5-(2-fluoro-3-pyridinyl)-2,4(1H,3H)-pyrimidinedione]",no activity
5,"Cl.Cl.N#Cc1cccc(-c2cn(CCCN3C[C@@H]4C[C@]4(c4ccc(C(F)(F)F)cc4)C3)c(=O)[nH]c2=O)n1 [Example E47, 6-[2,4-dioxo-1-(3-{(1S,5R)-1-[4-(trifluoromethyl)phenyl]-3-azabicyclo[3.1.0]hex-3-yl}propyl)-1,2,3,4-tetrahydro-5-pyrimidinyl]-2-pyridinecarbonitrile dihydrochloride]",no activity
6,"Cl.O=c1[nH]c(=O)n(CCCN2C[C@@H]3C[C@]3(c3ccc(C(F)(F)F)cc3F)C2)cc1-c1cccs1 [Example E12, 1-(3-{(1S,5R)-1-[2-fluoro-4-(trifluoromethyl)phenyl]-3-azabicyclo[3.1.0]hex-3-yl}propyl)-5-(2-thienyl)-2,4(1H,3H)-pyrimidinedione hydrochloride]",no activity
7,"Cc1ccncc1-c1cn(CCCN2C[C@@H]3C[C@]3(c3ccc(C(F)(F)F)cc3)C2)c(=O)[nH]c1=O.Cl.Cl [Example E64, 5-(4-methyl-3-pyridinyl)-1-(3-{(1S,5R)-1-[4-(trifluoromethyl)phenyl]-3-azabicyclo[3.1.0]hex-3-yl}propyl)-2,4(1H,3H)-pyrimidinedione dihydrochloride]",no activity
8,"Cc1cnc(F)c(-c2cn(CCCN3C[C@@H]4C[C@]4(c4ccc(C(F)(F)F)cc4)C3)c(=O)[nH]c2=O)c1.Cl.Cl [Example E61, 5-(2-fluoro-5-methyl-3-pyridinyl)-1-(3-{(1S,5R)-1-[4-(trifluoromethyl)phenyl]-3-azabicyclo[3.1.0]hex-3-yl}propyl)-2,4(1H,3H)-pyrimidinedione dihydrochloride]",no activity
9,"Cc1cccc(-c2cn(CCCCN3C[C@@H]4C[C@]4(c4ccc(C(F)(F)F)cc4)C3)c(=O)[nH]c2=O)n1.Cl.Cl [Example E32, 5-(6-methyl-2-pyridinyl)-1-(4-{(1S,5R)-1-[4-(trifluoromethyl)phenyl]-3-azabicyclo[3.1.0]hex-3-yl}butyl)-2,4(1H,3H)-pyrimidinedione dihydrochloride]",no activity
10,"Cc1ccc(-c2cn(CCCN3C[C@@H]4C[C@]4(c4ccc(C(F)(F)F)cc4)C3)c(=O)[nH]c2=O)c(Cl)n1.Cl.Cl [Example E63, 5-(2-chloro-6-methyl-3-pyridinyl)-1-(3-{(1S,5R)-1-[4-(trifluoromethyl)phenyl]-3-azabicyclo[3.1.0]hex-3-yl}propyl)-2,4(1H,3H)-pyrimidinedione dihydrochloride]",no activity
11,"Cc1ccccc1-c1cn(CCCN2C[C@@H]3C[C@]3(c3ccc(C(F)(F)F)cc3)C2)c(=O)[nH]c1=O.Cl [Example E31, 5-(2-methylphenyl)-1-(3-{(1S,5R)-1-[4-(trifluoromethyl)phenyl]-3-azabicyclo[3.1.0]hex-3-yl}propyl)-2,4(1H,3H)-pyrimidinedione hydrochloride]",no activity
12,"Cc1ccc(-c2cn(CCCN3C[C@@H]4C[C@]4(c4ccc(C(F)(F)F)cc4)C3)c(=O)[nH]c2=O)c(F)n1.Cl.Cl [Example E35, 5-(2-fluoro-6-methyl-3-pyridinyl)-1-(3-{(1S,5R)-1-[4-(trifluoromethyl)phenyl]-3-azabicyclo[3.1.0]hex-3-yl}propyl)-2,4(1H,3H)-pyrimidinedione dihydrochloride]",no activity
13,"Cl.N#Cc1cn(CCCN2C[C@@H]3C[C@]3(c3ccc(C(F)(F)F)cc3)C2)c(=O)[nH]c1=O [Example E17, 2,4-dioxo-1-(3-{(1S,5R)-1-[4-(trifluoromethyl)phenyl]-3-azabicyclo[3.1.0]hex-3-yl}propyl)-1,2,3,4-tetrahydro-5-pyrimidinecarbonitrile hydrochloride]",no activity
14,"Cc1ncccc1-c1cn(CCCN2C[C@@H]3C[C@]3(c3ccc(C(F)(F)F)cc3)C2)c(=O)[nH]c1=O.Cl.Cl [Example E19, 5-(2-methyl-3-pyridinyl)-1-(3-{(1S,5R)-1-[4-(trifluoromethyl)phenyl]-3-azabicyclo[3.1.0]hex-3-yl}propyl)-2,4(1H,3H)-pyrimidinedione dihydrochloride]",no activity
15,"Cc1nc(-c2cn(CCCN3C[C@@H]4C[C@]4(c4ccc(C(F)(F)F)cc4)C3)c(=O)[nH]c2=O)ccc1F.Cl.Cl [Example E39, 5-(5-fluoro-6-methyl-2-pyridinyl)-1-(3-{(1S,5R)-1-[4-(trifluoromethyl)phenyl]-3-azabicyclo[3.1.0]hex-3-yl}propyl)-2,4(1H,3H)-pyrimidinedione dihydrochloride]",no activity
